Test results published in paper PMC8007111, “Novel Potent Muscarinic Receptor Antagonists: Investigation on the Nature of Lipophilic Substituents in the 5- and/or 6-Positions of the 1,4-Dioxane Nucleus” (Journal of Medicinal Chemistry, 2020).

Legend:
hM1 mAChR = biological target: T1, hM1 mAChR (Homo sapiens, UniProt P11229); assay: [3H]NMS inhibition radioligand binding, hM1 in CHO-K1 cell membranes; settings: [3H]NMS, CHO-K1 cell membranes, mean ± S.E.M.; for Ki: read-out: pKi hM1 (converted)
T1 construct: expressed in transfected cells; host or cells: CHO-K1 (membrane preparation)
T1 sequence (P11229 1-460): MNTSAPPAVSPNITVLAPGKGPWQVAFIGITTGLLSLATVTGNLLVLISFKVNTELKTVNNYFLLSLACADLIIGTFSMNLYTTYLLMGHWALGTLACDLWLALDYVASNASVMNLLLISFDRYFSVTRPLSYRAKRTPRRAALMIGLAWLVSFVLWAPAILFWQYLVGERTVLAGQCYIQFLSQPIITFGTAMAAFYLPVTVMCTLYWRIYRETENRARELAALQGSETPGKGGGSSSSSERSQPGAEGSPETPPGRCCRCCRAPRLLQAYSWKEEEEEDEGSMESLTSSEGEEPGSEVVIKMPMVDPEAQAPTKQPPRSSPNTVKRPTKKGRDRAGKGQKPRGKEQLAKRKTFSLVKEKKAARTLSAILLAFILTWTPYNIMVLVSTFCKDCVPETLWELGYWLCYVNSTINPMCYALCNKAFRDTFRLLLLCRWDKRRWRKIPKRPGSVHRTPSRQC
Protocol: (§1) CHO-K1 cells stably transfected with the human muscarinic receptor subtypes (hM1–5) were grown in Dulbecco’s modified Eagle’s medium (DMEM) with nutrient mixture F12 (DMEM/F12, 50/50), containing 10% fetal bovine serum, penicillin (100 U/mL), streptomycin (100 U/mL), L-glutamine (4 mM), and geneticin (G-418, 50 μg/mL) at 37 °C in a 5% CO2 humidified incubator. […] Serum (0.7 mL) was added to inactivate the trypsin, and the cells were spun down by centrifuging at 300g for 5 min. The cells were then resuspended in ice-cold 25 mM sodium phosphate buffer containing 5 mM MgCl2, pH 7.4 (binding buffer) and homogenized using a cell disrupter (Ultra-Turrax, setting 3, 30 s). The homogenate was sedimented by centrifugation (17,000g, 15 min). The supernatant was discarded, and the resulting membrane pellets were resuspended with Ultra-Turrax in the same buffer to give a final protein concentration of 1–2 mg/mL. The protein content was determined by the method of Bradford (1976) with bovine serum albumin (Sigma) as a standard and stored at −80 °C.
(§2) Inhibition radioligand binding assays were conducted as previously described[48],[49] with 0.2 nM [^3H]NMS in binding buffer in a final volume of 250 μL. Nonspecific binding was defined in the presence of 10 μM atropine. Briefly, membrane fractions (about 25–70 μg/mL of protein) were incubated with radioligand and unlabeled test compounds for 2 h at r.t. Bound and free radioactivity were separated by filtering the assay mixture through UniFilter GF/B plates using a FilterMate Cell Harvester (PerkinElmer Life and Analytical Science). The filter bound radioactivity was counted by a TopCount NXT Microplate Scintillation Counter (PerkinElmer Life and Analytical Science). Data (cpm) were normalized to percentage-specific binding and analyzed using a four-parameter logistic equation in GraphPad Prism 5.02; IC50 values were determined, and Ki values were calculated.[59]

hM2 mAChR = biological target: T2, hM2 mAChR (Homo sapiens, UniProt P08172); assay: [3H]NMS inhibition radioligand binding, hM2 in CHO-K1 cell membranes; settings: [3H]NMS, CHO-K1 cell membranes, mean ± S.E.M.; for Ki: read-out: pKi hM2 (converted)
T2 construct: expressed in transfected cells; host or cells: CHO-K1 (membrane preparation)
T2 sequence (P08172 1-466): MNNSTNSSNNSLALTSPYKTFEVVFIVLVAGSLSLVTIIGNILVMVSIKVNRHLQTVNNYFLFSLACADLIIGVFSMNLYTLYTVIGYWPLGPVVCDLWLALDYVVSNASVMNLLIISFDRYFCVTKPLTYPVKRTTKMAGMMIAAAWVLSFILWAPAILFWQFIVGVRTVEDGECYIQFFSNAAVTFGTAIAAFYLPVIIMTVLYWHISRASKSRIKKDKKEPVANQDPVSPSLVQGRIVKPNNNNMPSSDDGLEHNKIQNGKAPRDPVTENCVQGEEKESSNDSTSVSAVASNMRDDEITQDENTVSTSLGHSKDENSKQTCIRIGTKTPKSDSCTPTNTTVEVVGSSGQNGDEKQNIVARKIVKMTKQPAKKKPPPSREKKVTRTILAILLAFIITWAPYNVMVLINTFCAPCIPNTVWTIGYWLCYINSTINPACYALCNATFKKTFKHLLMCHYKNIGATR
Protocol: as §1, §2

hM3 mAChR = biological target: T3, hM3 mAChR (Homo sapiens, UniProt P20309); assay: [3H]NMS inhibition radioligand binding, hM3 in CHO-K1 cell membranes; settings: [3H]NMS, CHO-K1 cell membranes, mean ± S.E.M.; for Ki: read-out: pKi hM3 (converted)
T3 construct: expressed in transfected cells; host or cells: CHO-K1 (membrane preparation)
Protocol: as §1, §2

hM4 mAChR = biological target: T4, hM4 mAChR (Homo sapiens, UniProt P08173); assay: [3H]NMS inhibition radioligand binding, hM4 in CHO-K1 cell membranes; settings: [3H]NMS, CHO-K1 cell membranes, mean ± S.E.M.; for Ki: read-out: pKi hM4 (converted)
T4 construct: expressed in transfected cells; host or cells: CHO-K1 (membrane preparation)
T4 sequence (P08173 1-479): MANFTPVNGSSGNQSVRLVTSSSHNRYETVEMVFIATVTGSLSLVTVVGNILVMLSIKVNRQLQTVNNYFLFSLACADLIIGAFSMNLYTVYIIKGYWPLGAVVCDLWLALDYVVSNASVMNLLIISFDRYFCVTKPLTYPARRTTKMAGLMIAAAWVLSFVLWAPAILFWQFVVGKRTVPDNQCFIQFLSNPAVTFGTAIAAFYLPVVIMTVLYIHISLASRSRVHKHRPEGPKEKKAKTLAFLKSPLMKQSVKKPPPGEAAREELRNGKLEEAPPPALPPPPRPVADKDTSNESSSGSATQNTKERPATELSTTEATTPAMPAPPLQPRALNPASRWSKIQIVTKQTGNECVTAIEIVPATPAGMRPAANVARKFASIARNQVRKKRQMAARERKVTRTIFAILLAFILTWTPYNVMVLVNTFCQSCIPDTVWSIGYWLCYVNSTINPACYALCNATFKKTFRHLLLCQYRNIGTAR
Protocol: as §1, §2

hM5 mAChR = biological target: T5, hM5 mAChR (Homo sapiens, UniProt P08912); assay: [3H]NMS inhibition radioligand binding, hM5 in CHO-K1 cell membranes; settings: [3H]NMS, CHO-K1 cell membranes, mean ± S.E.M.; for Ki: read-out: pKi hM5 (converted)
T5 construct: expressed in transfected cells; host or cells: CHO-K1 (membrane preparation)
T5 sequence (P08912 1-532): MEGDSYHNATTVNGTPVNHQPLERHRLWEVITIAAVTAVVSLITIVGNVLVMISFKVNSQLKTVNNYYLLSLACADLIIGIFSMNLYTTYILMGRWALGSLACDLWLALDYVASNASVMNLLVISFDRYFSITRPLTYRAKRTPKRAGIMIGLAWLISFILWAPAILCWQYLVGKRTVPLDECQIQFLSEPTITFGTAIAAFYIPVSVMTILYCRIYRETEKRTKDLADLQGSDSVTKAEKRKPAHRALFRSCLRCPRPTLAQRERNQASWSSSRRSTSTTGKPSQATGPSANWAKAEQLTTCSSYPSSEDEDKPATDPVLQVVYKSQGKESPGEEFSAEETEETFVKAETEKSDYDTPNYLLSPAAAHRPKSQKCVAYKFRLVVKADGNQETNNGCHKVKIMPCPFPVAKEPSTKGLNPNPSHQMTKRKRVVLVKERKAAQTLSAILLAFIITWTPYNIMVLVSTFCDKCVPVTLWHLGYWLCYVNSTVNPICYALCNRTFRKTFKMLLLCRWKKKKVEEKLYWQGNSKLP
Protocol: as §1, §2

T3 sequence (P20309 whole entry): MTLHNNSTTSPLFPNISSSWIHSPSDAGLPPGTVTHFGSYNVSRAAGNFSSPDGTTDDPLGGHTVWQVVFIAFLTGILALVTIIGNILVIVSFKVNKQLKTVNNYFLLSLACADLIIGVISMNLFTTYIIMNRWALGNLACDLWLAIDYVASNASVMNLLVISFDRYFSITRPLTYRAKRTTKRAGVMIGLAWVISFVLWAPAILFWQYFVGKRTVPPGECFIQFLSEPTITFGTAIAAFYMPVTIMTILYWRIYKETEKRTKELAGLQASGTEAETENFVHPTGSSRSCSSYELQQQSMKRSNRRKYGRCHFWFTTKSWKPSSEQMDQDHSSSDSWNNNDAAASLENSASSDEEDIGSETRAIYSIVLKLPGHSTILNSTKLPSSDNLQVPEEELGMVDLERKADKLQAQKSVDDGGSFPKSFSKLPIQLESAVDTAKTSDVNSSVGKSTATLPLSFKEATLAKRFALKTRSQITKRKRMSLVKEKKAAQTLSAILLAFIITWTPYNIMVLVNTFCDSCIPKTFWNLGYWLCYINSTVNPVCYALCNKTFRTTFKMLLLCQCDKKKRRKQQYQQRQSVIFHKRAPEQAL

`C[N+](C)(C)C[C@@H]1CO[C@@H](c2ccc([S+]([O-])c3ccccc3)cc2)CO1.[I-]` (relative stereo) [16b, 1-((2R*,5S*)-5-(4-(Phenylsulfinyl)phenyl)-1,4-dioxan-2-yl)-N,N,N-trimethylmethanaminium Iodide] was tested, and the “pKi hM1” value (hM1 mAChR) was 5.17 ± 0.09, the “pKi hM2” value (hM2 mAChR) was 6.38 ± 0.10 and the “pKi hM3” value (hM3 mAChR) was 5.88 ± 0.14. For the same compound, the “pKi hM4” value (hM4 mAChR) was 5.42 ± 0.02 and the “pKi hM5” value (hM5 mAChR) was 5.72 ± 0.15.
With `C[N+](C)(C)C[C@@H]1CO[C@H](C(c2ccccc2)c2ccccc2)CO1.[I-]` (relative stereo) [12a, 1-((2R*,5R*)-5-Benzhydryl-1,4-dioxan-2-yl)-N,N,N-trimethylmethanaminium Iodide] the “pKi hM1” value (hM1 mAChR) was 6.28 ± 0.08, the “pKi hM2” value (hM2 mAChR) was 5.87 ± 0.09 and the “pKi hM3” value (hM3 mAChR) was 5.77 ± 0.03. The “pKi hM4” value (hM4 mAChR) was 5.60 ± 0.06 and the “pKi hM5” value (hM5 mAChR) was 5.49 ± 0.06.
In the case of `C[N+](C)(C)C[C@@H]1COC[C@H](c2ccc(S(=O)(=O)c3ccccc3)cc2)O1.[I-]` (relative stereo) [8a, 1-((2R*,6S*)-6-(4-(Phenylsulfonyl)phenyl)-1,4-dioxan-2-yl)-N,N,N-trimethylmethanaminium Iodide], the “pKi hM1” value (hM1 mAChR) is reported as 5.08 ± 0.09, the “pKi hM2” value (hM2 mAChR) is reported as 5.13 ± 0.01 and the “pKi hM3” value (hM3 mAChR) is reported as under 5. For the same compound, the “pKi hM4” value (hM4 mAChR) was under 5 and the “pKi hM5” value (hM5 mAChR) was 5.21 ± 0.14.
For `C[N+](C)(C)C[C@@H]1CO[C@H](c2ccc(-c3ccccc3)cc2)CO1.[I-]` (relative stereo) [13a, 1-((2R*,5R*)-5-([1,1′-Biphenyl]-4-yl)-1,4-dioxan-2-yl)-N,N,N-trimethylmethanaminium Iodide], the “pKi hM1” value (hM1 mAChR) was under 5, the “pKi hM2” value (hM2 mAChR) was under 5 and the “pKi hM3” value (hM3 mAChR) was under 5. For the same compound, the “pKi hM4” value (hM4 mAChR) was under 5 and the “pKi hM5” value (hM5 mAChR) was under 5.
`C[N+](C)(C)C[C@@H]1COC[C@@H](c2ccc(Sc3ccccc3)cc2)O1.[I-]` (relative stereo) [6b, 1-((2R*,6R*)-6-(4-(Phenylthio)phenyl)-1,4-dioxan-2-yl)-N,N,N-trimethylmethanaminium Iodide] was tested, and the “pKi hM1” value (hM1 mAChR) was 5.51 ± 0.01, the “pKi hM2” value (hM2 mAChR) was 6.71 ± 0.01 and the “pKi hM3” value (hM3 mAChR) was 5.77 ± 0.05. The “pKi hM4” value (hM4 mAChR) was 5.70 ± 0.02 and the “pKi hM5” value (hM5 mAChR) was 5.95 ± 0.13.
In the case of `C[N+](C)(C)C[C@@H]1CO[C@@H](c2ccc(S(=O)(=O)c3ccccc3)cc2)CO1.[I-]` (relative stereo) [17b, 1-((2R*,5S*)-5-(4-(Phenylsulfonyl)phenyl)-1,4-dioxan-2-yl)-N,N,N-trimethylmethanaminium Iodide], the “pKi hM1” value (hM1 mAChR) is reported as under 5, the “pKi hM2” value (hM2 mAChR) is reported as under 5 and the “pKi hM3” value (hM3 mAChR) is reported as under 5. The “pKi hM4” value (hM4 mAChR) was under 5 and the “pKi hM5” value (hM5 mAChR) was under 5.
With `C[N+](C)(C)CC1COCC(c2ccc(Cc3ccccc3)cc2)O1` (mixture of isomers) [5a/b, 1-((2R*,6S*)-6-(4-Benzylphenyl)-1,4-dioxan-2-yl)-N,N,N-trimethylmethanaminium Iodide and 1-((2R*,6R*)-6-(4-Benzylphenyl)-1,4-dioxan-2-yl)-N,N,N-trimethylmethanaminium Iodide] the Ki (hM1 mAChR) was over 10 µM, the Ki (hM2 mAChR) was 4.9 µM and the Ki (hM3 mAChR) was over 10 µM. The Ki (hM4 mAChR) was over 10 µM and the Ki (hM5 mAChR) was 7.41 µM.
With `C[N+](C)(C)C[C@@H]1COC[C@@H](c2ccc([S+]([O-])c3ccccc3)cc2)O1.[I-]` (relative stereo) [7b, 1-((2R*,6R*)-6-(4-(Phenylsulfinyl)phenyl)-1,4-dioxan-2-yl)-N,N,N-trimethylmethanaminium Iodide] the “pKi hM1” value (hM1 mAChR) was 5.17 ± 0.08, the “pKi hM2” value (hM2 mAChR) was 6.38 ± 0.10 and the “pKi hM3” value (hM3 mAChR) was 5.88 ± 0.14. For the same compound, the “pKi hM4” value (hM4 mAChR) was 5.42 ± 0.02 and the “pKi hM5” value (hM5 mAChR) was 5.74 ± 0.16.
With `C[N+](C)(C)C[C@@H]1CO[C@@H](c2ccccc2)[C@H](c2ccccc2)O1.[I-]` (relative stereo) [18a, 1-((2R*,5S*,6S*)-5,6-Diphenyl-1,4-dioxan-2-yl)-N,N,N-trimethylmethanaminium Iodide] the “pKi hM1” value (hM1 mAChR) was 5.85 ± 0.09, the “pKi hM2” value (hM2 mAChR) was 5.72 ± 0.09 and the “pKi hM3” value (hM3 mAChR) was 5.33 ± 0.12. The “pKi hM4” value (hM4 mAChR) was 5.25 ± 0.08 and the “pKi hM5” value (hM5 mAChR) was 5.34 ± 0.07.
In the case of `C[N+](C)(C)C[C@@H]1COC(c2ccccc2)C(c2ccccc2)(c2ccccc2)O1` (stereo in doubt) [19a, 1-((2R*,5S*)-5,6,6-Triphenyl-1,4-dioxan-2-yl)-N,N,N-trimethylmethanaminium Iodide], the Ki (hM1 mAChR) is reported as 0.676 µM, the Ki (hM2 mAChR) is reported as 4.37 µM and the Ki (hM3 mAChR) is reported as 2 µM. The Ki (hM4 mAChR) was 3.89 µM and the Ki (hM5 mAChR) was 3.98 µM.
